By Ki is commonly meant the equilibrium dissociation constant of an inhibitor or competing ligand from its target. As a reminder, the melting point is the temperature, or range, at which the solid turns liquid. Usually IC50 stands for the point on the concentration scale where inhibition reaches its midpoint. Lower therefore signals inhibition by little substance.

Series [1] concerns the target T1, S1R (Rattus norvegicus, UniProt Q9R0C9).
T1 construct: liver homogenates (250 μg/sample) from male Sprague Dawley rats; from tissue; host or cells: liver homogenate of male Sprague Dawley rats
Briefly: S1R radioligand binding assay ([3H]-pentazocine, rat liver homogenates). The conditions noted are these: for SR subtype preference: in words, from S1R and S2R binding affinities; for S2R/S1R: selectivity ratio Ki S2R / Ki S1R. The method, then:
(§1) The S1R and S2R receptor affinities of the test compounds were evaluated in competition tests by radiometric assays.
(§2) Liver homogenates were prepared from Sprague Dawley rats (ENVIGO RMS S.R.L., Udine, Italy) for both S1R and S2R receptor binding assays. […] An Ultima Gold MV Scintillation cocktail was sourced from PerkinElmer (Milan, Italy). Other materials were obtained from Merck Life Science S.r.l. (Milan, Italy). For each compound, a10 mM DMSO stock solution was obtained. From these, diluted test concentrations ranging from 10^−5 M to 10^−11 M wereprepared using the respective assay buffer. Both assays involve the use of a tris buffer (50 mM, pH 8) and liver homogenates (250 μg/sample) from male Sprague Dawley rats. […] The final volume was 0.5 mL [54]. A millipore filter apparatus was employed to separate bound and free radioligands via filtration under conditions of reduced pressure through Whatman GF 6 glass fiber filters. Each filter paper was washed three times with 2 mL of ice-cold tris buffer (50 mM for S1R, 10 mM for S2R; pH 8.0), dried at room temperature, and incubated overnight with 2 mL of Ultima Gold MV Scintillation cocktail in pony vials. Bound radioactivity was determined using a liquid scintillation counter Beckman LS 6500 (Beckman Coulter Diagnostic, Brea, CA, USA. […]

The target of series [2] is T2, S2R (Rattus norvegicus, UniProt Q5U3Y7).
T2 construct: liver homogenates (250 μg/sample) from male Sprague Dawley rats; from tissue; host or cells: liver homogenate of male Sprague Dawley rats
T2 sequence (Q5U3Y7 1-176): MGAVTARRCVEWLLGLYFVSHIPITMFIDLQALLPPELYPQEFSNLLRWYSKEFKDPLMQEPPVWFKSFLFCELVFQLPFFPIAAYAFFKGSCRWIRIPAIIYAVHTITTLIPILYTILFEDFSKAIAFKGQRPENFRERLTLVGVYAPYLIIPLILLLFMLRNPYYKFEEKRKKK
Briefly: S2R radioligand binding assay ([3H]-DTG with (+)-pentazocine mask, rat liver homogenates). Conditions: for Ki: [3H]-DTG 2 nM, (+)-pentazocine 5 μM mask, rat liver homogenates, mean ± SEM; for S1R/S2R: selectivity ratio Ki S1R / Ki S2R. The method, then: as §1, §2

The test system of series [3] is HUH-7. As to the kind of experiment: Cytotoxicity, resazurin viability assay in HUH-7 cells. The conditions noted are these: Homo sapiens, 48 hrs treatment, mean ± SEM. In kind it is cell-based. On the procedure:
(§3) Cytotoxic potency was measured using a resazurin assay (see Supplementary Materials). Cells were treated with increasing concentrations of each compound for 48 hours before the cell viability was assessed (Supplementary Materials).
(§4) Dulbecco’s modified Eagle medium (DMEM; Gibco, Life Technologies, Grand Island, NY, USA), supplemented with 10% (v/v) of fetal bovine serum (FBS) and Antibiotic Antimycotic Solution (100 U penicillin, 100 μg/mL streptomycin and 0.25 μg/mL amphotericin B; Sigma-Aldrich, St. Louis, MO, USA), was used to culture the human cell lines SH-SY5Y [55] (neuroblastoma, ATCC, CRL-2266) and HUH-7 [56] (hepatocarcinoma, Japanese Cancer Research Resources Bank, National Institutes of Biomedical Innovation, Health and Nutrition, NIBIOHN, JCRB0403).
(§5) Cell viability was evaluated using resazurin (SERVA Electrophoresis GmbH, Heidelberg, Germany) as previously described.
(§6) Briefly, a resazurin stock solution (440 μM, 10× in phosphate-buffered saline) was diluted in a culture medium to prepare a 44 μM working solution. Cells (5 × 10^3) were seeded in 96-well plates, incubated with 100µl of resazurin working solution, and fluorescence was measured after 1, 2, and 3 hrs. The background fluorescence of killed cells was subtracted, and viability was calculated relative to control cells treated with DMSO solvent (1%). The fluorescence was measured using an Envision 2104 Multi-label Microplate Reader (Perkin Elmer, Boston, MA, USA) and by setting the excitation wavelength at λ = 530 nm and emission wavelength at λ = 590 nm. Measurements were performed at a time of 0 and after 1 hour of incubation. Cytotoxicity was calculated as 100% minus the percentage of viability.
(§7) Statistical analysis was carried out with GraphPad Prism® 6.0 software. An unpaired t-test was used to compare treated and control cells, with p < 0.05 considered statistically significant. The half-maximal inhibitory concentration (IC50) values for cytotoxicity were determined by analyzing dose-response curves using GraphPad Prism software.
Background: The colour change of resazurin is a common sign of viable cells or microbes.

The test system of series [4] is SH-SY5Y. As to the kind of experiment: Cytotoxicity, resazurin viability assay in SH-SY5Y cells. In kind it is cell-based. Conditions: Homo sapiens, 48 hrs treatment, mean ± SEM. On the procedure: as §3, §4, §5, §6, §7
Series [5] concerns the target S1R. Conditions: read-out: Ki S1R; siramesine literature value; cited from earlier work.
Series [6] concerns the target S2R. Conditions: read-out: Ki S2R; siramesine literature value; cited from earlier work.
Setting [7] is: [3H]-pentazocine 2 nM, rat liver homogenates, mean ± SEM, read-out: Ki S1R.

Each structure is given as a SMILES string. Values joined by “and” are separate entries in the source; they are usually repeats but may differ in a detail not shown here. Identical values can stand only once. Like-named read-outs stand apart in the source and are kept apart here.

T1 sequence (Q9R0C9 whole entry): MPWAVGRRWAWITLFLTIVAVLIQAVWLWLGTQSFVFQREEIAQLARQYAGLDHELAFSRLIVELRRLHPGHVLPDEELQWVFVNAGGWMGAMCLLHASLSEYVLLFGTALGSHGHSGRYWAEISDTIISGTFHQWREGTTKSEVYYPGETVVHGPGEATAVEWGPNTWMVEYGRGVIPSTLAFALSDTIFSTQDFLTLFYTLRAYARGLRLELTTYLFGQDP

`O=C(CCCN1CCCN(Cc2ccccc2)CC1)c1ccc(F)cc1` [4a, 4-(4-Benzyl-1,4-diazepan-1-yl)-1-(4-fluorophenyl)butan-1-one]: in series [1] (setting [7]), the inhibition constant Ki was 21.6 ± 3.44 nM. For the same molecule, in series [1], the SR subtype preference entry is recorded as “preference for the S1R subtype” and the S2R/S1R amounted to 10. In series [2] (read-out: Ki S2R), the Ki was found to be 210 ± 21.4 nM.
The molecule `O=C(CCCN1CCc2ccccc2C1)c1ccc(F)cc1` [4b, 4-(3,4-Dihydroisoquinolin-2(1H)-yl)-1-(4-fluorophenyl)butan-1-one] had a melting point of 45 to 47 °C. The Ki in series [1] (setting [7]) is 44.5 ± 7.39 nM. In series [1], the SR subtype preference entry was “preference for the S1R subtype” and the S2R/S1R is 2.8. Further, the Ki in series [2] (read-out: Ki S2R) was determined as 124 ± 16.3 nM. In series [2], the S1R/S2R stood at 0.35.
Regarding `COc1ccc(CN(C)CCCC(=O)c2ccc(F)cc2)cc1OC` [4c, 4-((3,4-Dimethoxybenzyl)(methyl)-amino)-1-(4-fluorophenyl)butan-1-one], the Ki in series [1] (setting [7]) worked out at 301 ± 74.7 nM. Also, in series [1], the SR subtype preference entry is given as “preference for S2R” and the S2R/S1R is recorded as 0.5. The Ki in series [2] (read-out: Ki S2R) turned out to be 148 ± 10.3 nM. For the same molecule, in series [2], the S1R/S2R came to 2.0.
`O=C(CCCN1CCN(C2CCCCC2)CC1)c1ccc(F)cc1` [4d, 4-(4-Cyclohexylpiperazin-1-yl)-1-(4-fluorophenyl)butan-1-one] yielded a melting point of 198 to 200 °C. Further, the inhibition constant (Ki) in series [1] (setting [7]) stood at 18.8 ± 2.91 nM. For the same molecule, in series [1], the SR subtype preference entry is recorded as “dual SR affinity” and the S2R/S1R is reported as 0.7. Further, in series [2] (read-out: Ki S2R), the inhibition constant Ki is 13.2 ± 2.78 nM. Further, in series [2], the S1R/S2R is on record as 1.4. The IC50 in series [3] is 163000 ± 18000 nM.
`COc1cc2c(cc1OC)CN(CCCC(=O)c1ccc(F)cc1)CC2` [4e, 4-(6,7-Dimetoxy-3,4-dihydroisoquinolin-2(1H)-yl)-1-(4-fluorophenyl)butan-1-one]: the Ki in series [1] (setting [7]) was 1660 ± 118 nM; in series [2] (read-out: Ki S2R), 6.93 ± 0.76 nM. The SR subtype preference result in series [1] is reported as “preference for S2R”. The S2R/S1R in series [1] came out at 0.004. The S1R/S2R in series [2] is on record as 241. Moreover, the half-inhibitory concentration (IC50) in series [4] came out at 120000 ± 13000 nM; in series [3], 40000 ± 5000 nM.
`O=C(CCCN1CCN(c2ccc(F)cc2)CC1)c1ccc(F)cc1` [4f, 1-(4-Fluorophenyl)-4-(4-(4-fluorophenyl)piperazin-1-yl)butan-1-one] gave a melting point of 94 to 95 °C. In series [1] (setting [7]), the Ki worked out at 70.2 ± 23.2 nM. In addition, in series [1], the SR subtype preference result was “preference for S2R” and the S2R/S1R is on record as 0.23. The Ki in series [2] (read-out: Ki S2R) came to 16.4 ± 3.17 nM. In series [2], the S1R/S2R is reported as 4.3.
Regarding `O=C(CCCN1CCC2(CC1)OCc1ccccc12)c1ccc(F)cc1` [4g, 1-(4-Fluorophenyl)-4-(3H-spiro[isobenzofuran-1,4′-piperidin]-1′-yl)butan-1-one], the melting point was in the range of 88 to 90 °C. For the same molecule, in series [1], the affinity, expressed as Ki, was 6.3 ± 1.4 nM; the SR subtype preference result was “dual SR affinity”; the S2R/S1R is recorded as 1.46. The inhibition constant Ki in series [2] (Ki S2R) was 9.2 nM and 9.23 nM. In addition, in series [2], the S1R/S2R was 0.7. Also, the IC50 in series [4] is 57000 ± 6000 nM. In series [3], this molecule had a concentration for half-maximal inhibition (IC50) of 16000 ± 2000 nM.
`Cc1ccc(CN(C)CCCC(=O)c2ccc(F)cc2)c(C)c1` [4h, 4-((2,4-Dimethylbenzyl)(methyl)amino)-1-(4-fluorophenyl)butan-1-one]: the Ki in series [1] (setting [7]) was 59.7 ± 7.6 nM. In addition, in series [1], the SR subtype preference entry was “preference for S2R” and the S2R/S1R came out at 0.46. Besides, the inhibitory constant (Ki) in series [2] (read-out: Ki S2R) came out at 27.7 ± 3.03 nM. Also, the S1R/S2R in series [2] is given as 2.1.
For `O=C(CCCN1CCC(c2ccncc2)CC1)c1ccc(F)cc1` [4i, 1-(4-Fluorophenyl)-4-(4-(pyridin-4-yl)piperidin-1-yl)butan-1-one], the melting point lay in the range of 102 to 104 °C. In series [1] (setting [7]), the Ki came to 13.9 ± 3.11 nM. Besides, in series [1], the SR subtype preference result is on record as “preference for the S1R subtype” and the S2R/S1R was found to be 2.03. In addition, the Ki in series [2] (read-out: Ki S2R) worked out at 28.3 ± 3.33 nM. Besides, the S1R/S2R in series [2] came to 0.5.
For `COc1ccc(CC2CCN(CCCC(=O)c3ccc(F)cc3)CC2)cc1OC` [4j, 4-(4-(3,4-Dimetoxybenzyl)piperidin-1-yl)-1-(4-fluorophenyl)butan-1-one], the inhibitory constant (Ki) in series [1] (setting [7]) is 6.1 ± 0.58 nM; in series [2] (read-out: Ki S2R), 153 ± 30.3 nM. The SR subtype preference entry in series [1] is on record as “preference for the S1R subtype”. Further, the S2R/S1R in series [1] was determined as 25. For the same molecule, the S1R/S2R in series [2] was found to be 0.04. The IC50 in series [4] was 58000 ± 7000 nM; in series [3] it was 37000 ± 6000 nM.
Regarding `Fc1ccc(-n2cc(CCCCN3CCC4(CC3)OCc3ccccc34)c3ccccc32)cc1` [SRM, siramesine, reference compound], the S2R/S1R in series [1] was found to be 1.2. In addition, the S1R/S2R in series [2] was 0.8. Also, the results for the IC50 in series [4] and in series [3] were 5000 ± 1000 nM and 2000 ± 250 nM, respectively. In addition, the inhibition constant Ki in series [5] was 10.5 ± 2.6 nM; in series [6], 12.6 ± 0.1 nM.

The values are drawn from article PMC11173765 (Molecules, 2024).
